Measurements reported in patent US9895375B2, “Compositions containing riboflavin and sesamin-class compounds” (SUNTORY HOLDINGS LIMITED, priority 2006, dated 2018).

Assays:
[1] = intraperitoneally, 3 to 100 mg/kg; cited from earlier work
[2] = ingested in high doses; cited from earlier work
[3] = perorally, 1 to 50 mg/kg; no further rise up to 75 mg; cited from earlier work
male Balb/b mice = assay: water immersion sleep deprivation test (weighted swimming time); type: in vivo; settings: Example 3, FIG. 4; riboflavin 25 or 50 mg/kg (riboflavin equivalent), sesamin 50 mg/kg, p.o. once a day for 2 days of water immersion
Description: That is, by measuring the swimming time in a water-immersion sleep deprivation test. A mouse, kept in such an environment as water immersion that they are unable to have a sufficient sleep or resting position to rest physically or mentally, is forced to swim under the stress of a weight and the time it takes to have its nose submerged in the water for at least 10 seconds is measured to determine the degree of its fatigue. Since this animal model is a physical and mental fatigue model, if the administration of a test substance prolongs the swimming time, it is confirmed that the model has resistance to fatigue, as exemplified by prevention or amelioration of physical and mental fatigue and the accompanying distress such as muscular pain, an increase in physical strength that helps prolong the time to exhaustion, and maintenance of physical vigor in a fatigued state.
The effect against fatigue was evaluated by a water immersion sleep deprivation test. […]
After two days of water immersion, the mice were allowed to swim with a weight attached to each of their tails having a mass equivalent to 8% of their body weight, and the time they took to have their nose submerged in water for at least 10 seconds was measured.
The anti-fatigue action due to riboflavin and a sesamin-class compound(s) was measured as in Example 3, except that the mice were divided into six groups as shown in Table 2.

Wistar male rats = assay: acetic acid writhing test; type: in vivo
Description: A test on analgesic action was conducted by a partly modified version of the acetic acid writhing test of Moon et. al. (Biol. Pharm. Bull. (2005)). The specific test method was as follows. […] Three days before the acetic acid writhing test, the rats were divided into three groups each consisting of 6 heads; the control group was orally administered through a tube with olive oil at a dose of 5 ml/kg whereas the remaining two groups were administered with sesamin-class compounds (sesamin/episesamin mixture; sesamin: episesamin (weight ratio)=5:5) as they were dissolved in olive oil at respective doses of 50 mg/kg and 100 mg/kg. Subsequently, administration was similarly performed two days before the test and on the day before the test, two administrations were effected, one in the morning and the other in the evening; thus, a total of four administrations were effected. On the day of testing, rats that had been fasted overnight from the previous night were orally administered with 5 ml/kg of physiological saline and one hour later, they were administered intraperitoneally with 1 ml/170 g of physiological saline containing 1% acetic acid and immediately after this administration, the number of writhing movements the animals made for 30 minutes right after the administration was counted. […]

## Cc1cc2nc3c(=O)[nH]c(=O)nc-3n(C[C@H](O)[C@H](O)[C@H](O)COP(=O)(O)O)c2cc1C [riboflavin, riboflavin sodium phosphate]
[1]
  analgesic action against inflammatory pain: showed an analgesic action against inflammatory pain in a dose-dependent fashion
  effect against pain in the nervous system: ineffective
[2]
  migraine prophylaxis: effective for migraine prophylaxis
[3]
  analgesic effect in a formaldehyde test: peaked at 25 mg
Male Balb/b mice
  suppression of the shortening of the swimming time (anti-fatigue action): suppressed in the shortening of the swimming time
Wistar male rats; Example 1, FIG. 2, vitamin B2 30 mg/kg riboflavin equivalent p.o. alone
  number of writhing movements versus control group (Olive+Saline): tendency to make a smaller number of writhing movements than the control group
Wistar male rats; Example 2, FIG. 3, vitamin B2 30 mg/kg riboflavin equivalent p.o., sesamin-class compounds 100 mg/kg p.o. x4 in the combination
  suppression of number of writhing movements compared with control group (Olive+Saline): 10.5%
